Article PMC10862539, “Chelation of Mitochondrial Iron as an Antiparasitic Strategy” (ACS Infectious Diseases, 2024)
Where two headings read alike, the source gives them in different places. Blank lines part the entries; values can stand above or below the compound they belong to.

Assays:
murine macrophage [1] = experiment: Intracellular L. mexicana infection assay, macrophage population; type: cell-based, mouse; conditions: infected macrophages, 72 h treatment, read-out: EC50 infection assay murine macrophage
Description: (§1) Approximately 10 000 murine macrophages per well were seeded on 96 well plate, and a suspension of 60 000 L. mexicana GFP-expressing promastigotes was added to each well and left to infect the mammal cells for 72 h in a cultivation medium under the conditions described in Table S2. 2-fold dilution series starting with 100 μM of either mitoDFO, DFO, or Amphotericin B in a regular growth medium were added, and cultures were incubated for further 72 h in the same conditions. Macrophage cells were washed and resuspended in growth medium and detached by pipetting, and their concentration in each well was measured on a Guava EasyCyte 8HT flow cytometer (Luminex). The GFP signal of internalized L. mexicana amastigotes in each macrophage was detected using a 488 nm excitation laser and a 525/30 nm detector. Median fluorescence graphs were plotted, and EC50 values for both macrophages and intracellular L. mexicana were calculated using Prism 8.0 (GraphPad Software).

C. neoformans = experiment: Drug sensitivity assay, C. neoformans (OD600); type: cell-based, Cryptococcus neoformans; conditions: Cryptococcus neoformans; reference compound; C. neoformans; 72 h; read-out: control EC50
Description: (§2) All organisms were cultivated according to the conditions summarized in Table S2, which also includes strain specifications. Dose–response curves were obtained by their cultivation on 96 well plates in a 2-fold series dilution of the appropriate drug, in a total volume of 200 μL (with the exception of P. falciparum, where the total volume was 100 μL). Iron supplementation was achieved by mixing the compound with Fe-NTA in an equimolar ratio prior to setting up the experiment. Results were plotted and processed using Prism 8.0 (GraphPad Software). A two-tailed unpaired t-test was performed to assess the significance of the difference between mitoDFO with and without added iron. Selectivity was calculated as the ratio of the average EC50 value for human fibroblasts to the average EC50 value for the appropriate pathogen. All data were obtained from a minimum of three independent biological replicates.

C. albicans = experiment: Drug sensitivity assay, C. albicans (OD600); type: cell-based, Candida albicans; conditions: Candida albicans; reference compound; C. albicans; 48 h; read-out: control EC50
Description: as §2

L. mexicana (amastigote) = experiment: Drug sensitivity assay, axenic L. mexicana amastigote (flow cytometry); type: cell-based, Leishmania mexicana
Description: as §2

murine macrophage [2] = experiment: Murine macrophage axenic monoculture EC50; type: cell-based, mouse; conditions: axenic monoculture, read-out: EC50 axenic murine macrophage
N. fowleri = experiment: Drug sensitivity assay, N. fowleri (flow cytometry); type: cell-based; conditions: Naegleria fowleri; reference compound; N. fowleri; 72 h; read-out: control EC50
Description: as §2

A. castellanii = experiment: Drug sensitivity assay, A. castellanii (flow cytometry); type: cell-based, Acanthamoeba castellanii; conditions: Acanthamoeba castellanii; reference compound; A. castellanii; 96 h; read-out: control EC50
Description: as §2

[3] = system: intracellular Leishmania mexicana amastigotes; experiment: Intracellular L. mexicana infection assay, GFP amastigotes in macrophages; type: cell-based; conditions: intracellular amastigotes, 72 h treatment, read-out: EC50 infection assay Leishmania mexicana
Description: as §1

L. major (promastigote) = experiment: Drug sensitivity assay, L. major promastigote (flow cytometry); type: cell-based; conditions: Leishmania major; reference compound; L. major (promastigote); 120 h; read-out: control EC50
Description: as §2

B. divergens = experiment: Drug sensitivity assay, B. divergens in bovine erythrocytes (flow cytometry); type: cell-based, Babesia divergens; conditions: Babesia divergens, Erythrocyte; reference compound; B. divergens; 48 h; read-out: control EC50
Description: as §2

G. intestinalis = experiment: Drug sensitivity assay, G. intestinalis (flow cytometry); type: cell-based; conditions: Giardia duodenalis; reference compound; G. intestinalis; 24 h; read-out: control EC50
Description: as §2

P. falciparum = experiment: Drug sensitivity assay, P. falciparum (SYBR green I); type: cell-based, Plasmodium falciparum; conditions: Plasmodium falciparum, 48 h, read-out: control EC50
Description: as §2

T. brucei 427 (BSF) = experiment: Drug sensitivity assay, T. brucei 427 bloodstream form (resazurine); type: cell-based, Trypanosoma brucei; conditions: Trypanosoma brucei
Description: as §2

T. gambiense (BSF) = experiment: Drug sensitivity assay, T. gambiense bloodstream form (resazurine); type: cell-based, Trypanosoma gambiense; conditions: Trypanosoma brucei; reference compound; T. gambiense (BSF); 72 h; read-out: control EC50
Description: as §2

T. brucei STIB (BSF) = experiment: Drug sensitivity assay, T. brucei STIB bloodstream form (resazurine); type: cell-based, Trypanosoma brucei; conditions: Trypanosoma brucei; reference compound; T. brucei STIB (BSF); 72 h; read-out: control EC50
Description: as §2

Structure (SMILES): C[C@@H]1[C@H](O)[C@@H](C)/C=C/C=C/C=C/C=C/C=C/C=C/C=C/[C@H](O[C@@H]2O[C@H](C)[C@@H](O)[C@H](N)[C@@H]2O)C[C@@H]2O[C@](O)(C[C@@H](O)C[C@@H](O)[C@H](O)CC[C@@H](O)C[C@@H](O)CC(=O)O[C@H]1C)C[C@H](O)[C@H]2C(=O)O [AmpB, amphotericin B, reference compound]
- EC50 (murine macrophage [1]; Mus musculus, Macrophage): 29.1 ± 5.91 µM
- EC50 (C. neoformans): 0.2 ± 0.1 µM
- EC50 (C. albicans): 1.5 ± 0.1 µM
- EC50 (L. mexicana (amastigote); Leishmania mexicana, axenic monoculture, read-out: EC50 axenic Leishmania mexicana): 0.33 ± 0.08 µM
- EC50 (L. mexicana (amastigote); Leishmania mexicana, reference compound, L. mexicana (amastigote), 120 h, read-out: control EC50): 0.32 ± 0.035 µM
- EC50 (murine macrophage [2]; Mus musculus, Macrophage): > 25 µM
- EC50 (N. fowleri): 0.069 ± 0.009 µM
- EC50 (A. castellanii): 8.1 ± 1.6 µM
- EC50 ([3]; Leishmania mexicana, Macrophage): 3.77 ± 0.4 µM
- EC50 (L. major (promastigote)): 0.024 ± 0.008 µM

Structure (SMILES): CN(C)CCOc1ccc(/C(=C(/CCCCCCCCCC[P+](c2ccccc2)(c2ccccc2)c2ccccc2)c2ccccc2)c2ccccc2)cc1 [MitoTam]
- EC50 (murine macrophage [1]): 0.26 µM
- EC50 (L. mexicana (amastigote); axenic monoculture, read-out: EC50 axenic Leishmania mexicana): 0.35 µM
- EC50 (murine macrophage [2]): 0.39 µM
- EC50 [3]: ~0.1 µM

Structure (SMILES): CCN(CC)CCCC(C)Nc1ccnc2cc(Cl)ccc12 (stereo not drawn) [chloroquine, reference compound]
- EC50 (P. falciparum): 0.015 ± 0.001 µM

Structure (SMILES): N=C(N)c1ccc(OCCCCCOc2ccc(C(=N)N)cc2)cc1 [pentamidine]
- EC50 (T. gambiense (BSF)): 0.002 ± 0.0005 µM
- EC50 (T. brucei STIB (BSF)): 0.001 ± 0.0004 µM
- EC50 (T. brucei 427 (BSF); reference compound, T. brucei 427 (BSF), 72 h, read-out: control EC50): 0.007 ± 0.001 µM

Other lines, results leading:

- EC50 (B. divergens): 0.008 ± 0.001 µM
Structure (SMILES): O=C1C(O)=C([C@H]2CC[C@H](c3ccc(Cl)cc3)CC2)C(=O)c2ccccc21 [atovaquone, reference compound]

- EC50 (G. intestinalis): 2.6 ± 1.4 µM
Structure (SMILES): O=C(Cn1ccnc1[N+](=O)[O-])NCc1ccccc1 [benznidazole]

- EC50 (T. brucei 427 (BSF); T. brucei 427, comparison drug in text, read-out: EC50): 4.84 µM
Structure (SMILES): CSc1ccc(OCc2ncc([N+](=O)[O-])n2C)cc1 [fexinidazole]
